Measured values: US20130090360A1 (priority 2010, published 2013)
Read-outs that look alike come from different tables or passages of the source.

Columns and labels:
Pyricularia oryzae = type: in vivo, Pyricularia oryzae on rice plants (variety Tainong 67); conditions: field, natural infection
Pyricuaria oryzae = type: in vivo, Pyricuaria oryzae on rice plants (variety Tainong 67); conditions: field, natural infection

SMILES	Efficacy % 15 days after first application (Pyricularia oryzae; application rate 100 g ai/ha) [%]	Efficacy % 22 days after first application (Pyricuaria oryzae; application rate 100 g ai/ha) [%]	Efficacy % 22 days after first application (Pyricuaria oryzae; application rate 200 g ai/ha) [%]	Efficacy % 15 days after first application (Pyricularia oryzae; application rate 25 g ai/ha) [%]	Efficacy % 15 days after first application (Pyricularia oryzae; application rate 50 g ai/ha) [%]	Efficacy % 15 days after first application (Pyricularia oryzae; application rate 75 g ai/ha) [%]	Efficacy % 22 days after first application (Pyricuaria oryzae; application rate 25 g ai/ha) [%]	Efficacy % 22 days after first application (Pyricuaria oryzae; application rate 50 g ai/ha) [%]	Efficacy % 22 days after first application (Pyricuaria oryzae; application rate 75 g ai/ha) [%]
Cc1cccc2sc3nncn3c12 [Tricyclazol, tricyclazole]	34.9	5.6	0.0						
Fc1ccc([C@]2(Cn3cncn3)O[C@H]2c2ccccc2Cl)cc1 (racemic) [Epoxiconazole (EPX), epoxiconazole]				17.7	24.1	35.1	1.2	0.0	5.6
